Experimental data published in patent US20240408219A1, “BICYCLIC PEPTIDE LIGAND DRUG CONJUGATES” (priority 2021, published 2024).
Several values for one entry are separate records, joined by “and”; a condition that tells them apart may be missing. Identical values can stand only once. Numbered stars: 1 amine (or outer) side, 2 acyl side, 3 side chain; on linkers, the order of the positions; unused ones are H or OH. Bridge positions count the residues as written; N and C are the ends. Square brackets hold non-standard residues; d marks the D form. Ends that are not written are not given here. 1Nal = N[C@@H](Cc1cccc2ccccc12)C(=O)O; TBMB = c1c(C[*:1])cc(C[*:3])cc1C[*:2]; Tle = CC(C)(C)[C@H](N)C(=O)O; βAla = NCCC(=O)O; Sar = CNCC(=O)O

System: HT1080 xenograft
Assay: In vivo efficacy test in HT1080 xenograft in BALB/c nude mice (Example 1)
Experimental: [table] • Species: Mus Musculus • Strain: […] Shanghai LC Laboratory Animal Co., LTD. […] The tumor cells were routinely subcultured twice weekly by trypsin-EDTA treatment. The cells growing in an exponential growth phase were harvested and counted for tumor inoculation. […] The test article administration and the animal numbers in each group were shown in the experimental design table. […] All the procedures related to animal handling, care and the treatment in the study were performed according to the guidelines approved by the Institutional Animal Care and Use Committee (IACUC) of WuXi AppTec, following the guidance of the Association for Assessment and Accreditation of Laboratory Animal Care (AAALAC). At the time of routine monitoring, the animals were daily checked for any effects of tumor growth and treatments on normal behavior such as mobility, food and water consumption (by looking only), body weight gain/loss, eye/hair matting and any other abnormal effect as stated in the protocol. Death and observed clinical signs were recorded on the basis of the numbers of animals within each subset. The major endpoint was to see if the tumor growth could be delayed or mice could be cured. […] The tumor size was then used for calculations of T/C value. The T/C value (in percent) is an indication of antitumor effectiveness; T and C are the mean volumes of the treated and control groups, respectively, on a given day. TGI was calculated for each group using the formula: […] Ti is the average tumor volume of a treatment group on a given day, TO is the average tumor volume of the treatment group on the day of treatment start, Vi is the average tumor volume of the vehicle control group on the same day with Ti, and VO is the average tumor volume of the vehicle group on the day of treatment start. Summary statistics, including mean and the standard error of the mean (SEM), are provided for the tumor volume of each group at each time point. Statistical analysis of difference in tumor volume among the groups was conducted on the data obtained at the best therapeutic time point after the final dose. A one-way ANOVA was performed to compare tumor volume among groups, and when a significant F-statistics (a ratio of treatment variance to the error variance) was obtained, comparisons between groups were carried out with Games-Howell test. All data were analyzed using Prism.

## BT17BDC70: Reference bicyclic peptide drug conjugate (Tet-MMAE); BICY comprises βAla-Sar10-A-(SEQ ID NO: 1) ([βAla][Sar][Sar][Sar][Sar][Sar][Sar][Sar][Sar][Sar][Sar]AC[dA]NE[1Nal][dA]CEDFYD[Tle]C-NH2; linker 13-19-26 via TBMB; also: Tet-MMAE conjugate)
0.1 mg/kg biw
  Antitumor activity (in words): did not produce significant antitumor activity
0.3 mg/kg biw
  Antitumor activity (in words): did not produce significant antitumor activity
0.1 mpk iv biw, day 0 after the start of treatment
  Tumor volume (mean ± SEM): 170 ± 21 mm^3
0.1 mpk iv biw, day 2
  Tumor volume (mean ± SEM): 400 ± 45 mm^3
0.1 mpk iv biw, day 4
  Tumor volume (mean ± SEM): 557 ± 23 mm^3
0.1 mpk iv biw, day 7
  Tumor volume (mean ± SEM): 1017 ± 180 mm^3
0.1 mpk iv biw, day 9
  Tumor volume (mean ± SEM): 1102 ± 295 mm^3
0.1 mpk iv biw, day 11
  Tumor volume (mean ± SEM): 1133 ± 203 mm^3
0.1 mpk iv biw, day 14
  T/C: 129.9%
  TGI: −36.3%
  Tumor volume (mean ± SEM): 1315 mm^3 and 1315 ± 287 mm^3
0.3 mpk iv biw, day 0 after the start of treatment
  Tumor volume (mean ± SEM): 170 ± 27 mm^3
0.3 mpk iv biw, day 2
  Tumor volume (mean ± SEM): 371 ± 63 mm^3
0.3 mpk iv biw, day 4
  Tumor volume (mean ± SEM): 501 ± 91 mm^3
0.3 mpk iv biw, day 7
  Tumor volume (mean ± SEM): 703 ± 69 mm^3
0.3 mpk iv biw, day 9
  Tumor volume (mean ± SEM): 695 ± 60 mm^3
0.3 mpk iv biw, day 11
  Tumor volume (mean ± SEM): 745 ± 60 mm^3
0.3 mpk iv biw, day 14
  T/C: 89.2%
  TGI: 12.8%
  Tumor volume (mean ± SEM): 903 mm^3 and 903 ± 67 mm^3
Over all doses tested
  Antitumor activity (in words): did not produce significant antitumor activity
